Values of other authors, collected in patent EP0396201A1 (priority 1989, dated 1990).

Tested on: carbonic anhydrase
Details: carbonic anhydrase inhibitor, relative activity

CC(=O)Nc1nnc(S(N)(=O)=O)s1 [Acetazolamide]
times as active as p-aminobenzenesulfonamide: ~330
